Laboratory results published in patent US11279733B2, “Peptide antibiotics” (priority 2017, dated 2022).
In brackets after ≈: the same amount, converted by molar mass. Positions of bridges follow the written chain, without caps; N, C: chain ends. Non-standard residues stand in square brackets, D forms with d. Residues, ends and D or L forms follow the SMILES beside them. *: point of attachment. Decanoyl(3R-OH) = CCCCCCC[C@@H](O)CC(=O)*; dDab = NCC[C@@H](N)C(=O)O; Dab = NCC[C@H](N)C(=O)O

Key:
[1] = In vitro nephrotoxicity, GGT release from primary human kidney cells; assay type: cell-based; conditions: pH 7.4
Description: (§1) hPT cells were derived from whole human kidneys procured by the International Institute for the Advancement of Medicine (Edison, N.J., USA). All tissue was scored by a pathologist as normal (i.e., derived from non-cancerous, non-diseased tissue). Cell isolation procedures were based on those originally described by Todd et al. (1996) and modified (Cummings and Lash, 2000; Cummings et al., 2000) with use of sterile conditions (i.e., all instruments and glassware were autoclaved and all buffers were filtered through a 0.2-μm pore-size filter). Renal cortex and outer stripe were cut into slices, washed with sterile PBS, minced, and the pieces were placed in a trypsinization flask filled with 300 ml of sterile, filtered Hanks' buffer, containing 25 mM NaHCO3, 25 mM HEPES, pH 7.4, 0.5 mM EGTA, 0.2% (w/v) bovine serum albumin, 50 μg/ml gentamicin, 1.3 mg/mL collagenase, and 0.59 mg/ml CaCl2), which was filtered prior to use. Whole kidneys were perfused with Wisconsin medium and kept on ice until they arrived at the laboratory, which was usually within 24 h of removal from the donor.
(§2) All buffers were continuously bubbled with 95% O2/5% CO2 and were maintained at 37° C. Minced cortical pieces from whole kidneys were subjected to collagenase digestion for 60 min, after which the supernatant was filtered through a 70-μm mesh filter to remove tissue fragments, centrifuged at 150×g for 7 min, and the pellet resuspended in Dulbecco's Modified Eagle's Medium: Ham's F12 Medium (DMEM/F12; 1/1). Approximately 5 to 7×10^6 cells were obtained per 1 g of human kidney cortical tissue.
(§3) hPT cells were resuspended in 2 mL of DMEM/F12 and diluted to 500 mL with cell culture medium, which was serum-free and hormonally-defined. Composition of this supplemented medium was based on earlier work establishing optimal conditions for primary culture of rat PT cells (Lash et al., 1995). Basal medium was a 1:1 mixture of DMEM/F12. […] Cells were seeded in a volume of 0.5 ml at a density of 50-100 μg protein per cm^2 (0.5-1.0×10^6 cells/ml) on 24-well plates. Cultures were grown at 37° C. in a humidified incubator under an atmosphere of 95% air/5% CO2 at pH 7.4. Cultures were grown to approximately 80%-90% confluence (generally 5-6 days) prior to experiments. Cells were harvested by either scraping the flasks with a Teflon scraper or by brief incubation with Cellstripper (Cellgro, Herndon, Va., USA) (in Ca^2+- and Mg^2+-free Hanks' buffer).
Release of gamm-glutanyltransferase was assessed according to Orlowski, M., Meister, A. 1963. γ-Glutamyl-p-nitroanilide: A new convenient substrate for determination and study of L- and D-γ-glutamyltranspeptidase activities (Biochim. Biophys. Acta 73: 679-681.)
A 2.5 mM substrate Solution was prepared from 67 mg γ-glutamyl-p-nitroanilide+264 mg glycylglycine in 100 mL of 0.05 M Tris, pH 8.2 (50 mM Tris, pH 8.2: 605 mg Tris/HCl per 100 mL).
For the assay in 96-well plates, 6-μL of sample and 0.3 mL substrate solution were added to each well. The absorbance was measured at 410 nm for the appearance of product, p-nitroanilide (molar extinction=8800 M^−1 cm^−1).

[2] = In vitro nephrotoxicity, LDH release from primary human kidney cells; assay type: cell-based; conditions: pH 7.4
Description: as §1, §2, §3

[3] = test system: K. pneumoniae ATCC BAA-2146, NDM-1 pos; conditions: ATCC BAA-2146
Outline: (§4)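 Mid-log cultures grown in Mueller Hinton broth at 37° C were tested by 2-fold broth microdilution at 5×10^5 CFU/mL final. Compounds were dissolved in water and tested over a final range of 32 to 0.015 μg/mL.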

A. baumannii ATCC 19606 = conditions: ATCC 19606
Outline: as §4

K. pneumoniae ATCC 13883 = conditions: ATCC 13883
Outline: as §4

E. coli ATCC 25922 = conditions: ATCC 25922
Outline: as §4

[4] = test system: K. pneumoniae GN_102 PmxR; conditions: GN 102 PmxR
Outline: as §4

[5] = test system: P. aeruginosa GN_043, PmxR; conditions: polymyxin-resistant
Outline: as §4

[6] = test system: K. pneumoniae GN_106, PmxR; conditions: GN 106, PmxR
Outline: as §4

[7] = test system: S. aureus ATCC 25923, MSSA; conditions: ATCC 25923
Outline: as §4

[8] = test system: P. aeruginosa GN_105, PmxR; conditions: GN 105, PmxR
Outline: as §4

A. baumannii GN_093 PmxR = conditions: GN 093 PmxR
Outline: as §4

P. aeruginosa ATCC 27853 = conditions: ATCC 27853
Outline: as §4

[9] = test system: K. pneumoniae ATCC 700603, MDR; conditions: ATCC 700603
Outline: as §4

SMILES | CC50 [1] [µg/mL] | CC50 [2] [µg/mL] | MIC, K. pneumoniae ATCC BAA-2146, NDM-1 pos [3] [µg/mL] | MIC, A. baumannii ATCC 19606 (A. baumannii ATCC 19606) [µg/mL] | MIC, K. pneumoniae ATCC 13883 (K. pneumoniae ATCC 13883) [µg/mL] | MIC, E. coli ATCC 25922 (E. coli ATCC 25922) [µg/mL] | MIC K. pneumoniae GN_102 PmxR [4] [µg/mL] | MIC P. aeruginosa GN_043, PmxR ([5]; Table 6) [µg/mL] | MIC K. pneumoniae GN_106, PmxR [6] [µg/mL] | MIC, S. aureus ATCC 25923, MSSA [7] [µg/mL] | MIC P. aeruginosa GN_105, PmxR [8] [µg/mL] | MIC A. baumannii GN_093 PmxR (A. baumannii GN_093 PmxR) [µg/mL] | MIC, P. aeruginosa ATCC 27853 (P. aeruginosa ATCC 27853) [µg/mL] | MIC, K. pneumoniae ATCC 700603, MDR [9] [µg/mL] | MIC, K. pneumoniae Cl Koprana 10065 0661:1, PmxR [4] [µg/mL] | MIC, P. aeruginosa FADDI-PA070, PmxR ([5]; Table 5) [µg/mL] | MIC, K. pneumoniae Cl 138-16347-20362, PmxR [6] [µg/mL] | MIC, S. Aureus ATCC 25923, MSSA [7] [µg/mL] | MIC, P. aeruginosa PA9704, PmxR [8] [µg/mL] | MIC, A. baumannii Cl Ptyela 10073 4512:2, PmxR (A. baumannii GN_093 PmxR) [µg/mL]
CCCCCCC[C@@H](O)CC(=O)N[C@H](CCN)C(=O)N[C@H]1CCNC(=O)[C@H](CC(C)C)NC(=O)[C@H](CCN)NC(=O)[C@H](CCN)NC(=O)[C@H](CC(C)C)NC(=O)[C@@H](Cc2ccccc2)NC(=O)[C@H](CCN)NC1=O [Octapeptin C4, octapeptin C4, reference compound] ({Decanoyl(3R-OH)}-[dDab][Dab][Dab][dF]L[Dab][Dab]L; lactam 2-C) | > 128 | 62 (≈ 59.4 µM) | – | – | – | – | – | – | – | – | – | – | – | – | – | – | – | – | – | –
CCCCCCC[C@@H](O)CC(=O)N[C@@H](CCN)C(=O)N[C@H]1CCNC(=O)[C@H](CC(C)C)NC(=O)[C@H](CCN)NC(=O)[C@H](CCN)NC(=O)[C@H](CC(C)C)NC(=O)[C@@H](Cc2ccccc2)NC(=O)[C@H](CCN)NC1=O [compound 8638, 3(R)OH-nC9CO-L-Dab-cyc[L-Dab-L-DAB-D-Phe-L-Leu-L-Dab-L-Dab-L-Leu]] ({Decanoyl(3R-OH)}-[Dab][Dab][Dab][dF]L[Dab][Dab]L; lactam 2-C) | > 128 | > 128 | 8 (≈ 7.66 µM) | 32 (≈ 30.6 µM) | 4 (≈ 3.83 µM) | 2 (≈ 1.92 µM) | 4 (≈ 3.83 µM) | 8 (≈ 7.66 µM) | 4 (≈ 3.83 µM) | 16 (≈ 15.3 µM) | 2 (≈ 1.92 µM) | 32 (≈ 30.6 µM) | 1 (≈ 0.958 µM) | 8 (≈ 7.66 µM) | – | – | – | – | – | –
CCCCCCC[C@@H](O)CC(=O)N[C@H](CCN)C(=O)N[C@H]1CCNC(=O)[C@H](CC(C)C)NC(=O)[C@H](CCN)NC(=O)[C@H](CCNC(=O)[C@@H](N)CCCNC(=N)N)NC(=O)[C@H](CC(C)C)NC(=O)[C@@H](Cc2ccccc2)NC(=O)[C@H](CCN)NC1=O [compound 6654, 3(R)OH-nC9CO-D-Dab-cyc[L-Dab-L-Dab-D-Phe-L-Leu-L-Dab(L-Arg)-L-Dab-L-Leu]] ({Decanoyl(3R-OH)}-[dDab][Dab][Dab][dF]L[Dab](Arg)[Dab]L; lactam 2-C) | > 128 | > 128 | 8 (≈ 6.66 µM) | 8 (≈ 6.66 µM) | 4 (≈ 3.33 µM) | 4 (≈ 3.33 µM) | – | – | – | – | – | – | 4 (≈ 3.33 µM) | 4 (≈ 3.33 µM) | 8 (≈ 6.66 µM) | 2 (≈ 1.67 µM) | 16 (≈ 13.3 µM) | 16 (≈ 13.3 µM) | 2 (≈ 1.67 µM) | 8 (≈ 6.66 µM)
